Some test systems named below: ACHN; SNB-75; HCT-15; OVCAR-3; SNB-19; HOP-92; SF-268; NCI-H460; XF498; Malme-3M; LOX IMVI; COLO 205; EKVX; NCI-H522; A498; UACC-257; HCC 2998; HOP-18; KM-20L2; DMS-273.
Common to all, as to experiment: DTP human tumour cell line panel, 48 h

Each structure is given as a SMILES string.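 In this assay, cells in 96-well plates receive the compound at five concentrations for 48 hours. Endpoints are linearly interpolated between the surrounding concentrations. GI50 marks 50% less growth.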 Calls of active or inactive are those of the source. Rule as the data show it: active = GI50 up to about 1.1 µM and inactive = higher.

Take `CCOC(=O)NC(=O)c1cn(CCNCCO)c(=O)[nH]c1=O`: the GI50 in the test on ACHN was > 100 µM (inactive); in the test with SNB-75, 3.36 µM (inactive); in the test with HCT-15, over 100 µM; in the test with OVCAR-3 it was > 100 µM (inactive); in the test with SNB-19, 9.23 µM (inactive); in the test with HOP-92 it was > 100 µM (inactive). Further, the GI50 with SF-268, in the test on NCI-H460, in the test with XF498, with Malme-3M, in the test with LOX IMVI and in the test with COLO 205 was > 100 µM (inactive) throughout. The GI50 in the test on EKVX and in the test on NCI-H522 was > 100 µM (inactive) in each case.
As for `COc1nc(-c2cn(S(=O)(=O)c3ccc(C)cc3)c3ccc(Br)cc23)cc(C(F)(F)F)c1C#N`, the GI50 in the test with A498 is 52.5 µM (inactive); in the test with ACHN it was 29.1 µM (inactive); in the test on SNB-75, 23.3 µM (inactive); in the test with HCT-15 it was 41.4 µM; with OVCAR-3, 18 µM (inactive); with SNB-19, 25.9 µM (inactive). The GI50 was 31.3 µM (inactive) in the test on HOP-92; 53.1 µM (inactive) in the test on UACC-257; 53.2 µM (inactive) in the test with SF-268; > 100 µM (inactive) in the test on NCI-H460; 85.9 µM (inactive) in the test with HCC 2998; > 100 µM (inactive) in the test on Malme-3M. Besides, the GI50 with LOX IMVI is 23.7 µM (inactive); in the test on COLO 205 it was > 100 µM (inactive); in the test with EKVX, 40 µM (inactive); in the test on NCI-H522 it was 47.9 µM (inactive).
For the compound `CC(=O)Nc1ccc(C(=O)NN2C(=O)C(Cl)C2/C=C/c2ccccc2)cc1` (centres undefined), the GI50 in the test with ACHN, in the test with SNB-75, with OVCAR-3, in the test with SNB-19, with HOP-92 and in the test with UACC-257 was > 100 µM (inactive) each time. Further, the GI50 in the test on SF-268, in the test with NCI-H460, in the test with HCC 2998, in the test with Malme-3M, in the test with HOP-18 and in the test with COLO 205 was > 100 µM (inactive) throughout. Besides, in the test with NCI-H522, the GI50 was > 100 µM (inactive).
On to `Nc1nc(=O)n(CC(O)CO)s1` (centres undefined), for which the GI50 with A498 is > 100 µM (inactive); in the test on ACHN, > 100 µM (inactive); in the test with SNB-75, > 100 µM (inactive); in the test on HCT-15, over 100 µM; with OVCAR-3, > 100 µM (inactive); in the test with KM-20L2 it was > 100 µM (inactive). Further, the GI50 in the test on SNB-19, in the test with DMS-273, with UACC-257, with SF-268, in the test on NCI-H460 and with HCC 2998 was > 100 µM (inactive) in each case. The GI50 in the test with Malme-3M, with LOX IMVI, in the test with HOP-18, in the test on COLO 205 and with EKVX was > 100 µM (inactive) in each case.
As for `Nc1ncnc2c1sc1nc3ccccc3n12`, the GI50 was > 61.7 µM (inactive) in the test on A498; 57.7 µM (inactive) in the test with ACHN; over 100 µM in the test on HCT-15; > 100 µM (inactive) in the test on OVCAR-3; > 100 µM (inactive) in the test on SNB-19; > 100 µM (inactive) in the test on HOP-92. For the same compound, the GI50 was > 100 µM (inactive) in the test with UACC-257; 19.4 µM (inactive) in the test on SF-268; 53.1 µM (inactive) with NCI-H460; > 44.8 µM (inactive) in the test with HCC 2998; > 71.3 µM (inactive) in the test on Malme-3M; 4.13 µM (inactive) in the test on LOX IMVI. The results for the GI50 in the test with COLO 205, in the test on EKVX and with NCI-H522 were > 100 µM (inactive), 35.1 µM (inactive) and > 43.2 µM (inactive), respectively.
As for `CCOC(=O)[C@H]1Nc2c(cccc2[N+](=O)[O-])[C@H]2OCC[C@@H]12`, the GI50 in the test with ACHN was > 100 µM (inactive); in the test on SNB-75, > 100 µM (inactive); in the test with HCT-15, over 100 µM; with OVCAR-3, > 100 µM (inactive); with KM-20L2, > 100 µM (inactive); in the test on SNB-19, > 100 µM (inactive). In addition, the GI50 is > 100 µM (inactive) in the test with DMS-273; 11.5 µM (inactive) with UACC-257; > 100 µM (inactive) with SF-268; > 100 µM (inactive) with NCI-H460; > 100 µM (inactive) with HCC 2998; > 100 µM (inactive) in the test on XF498. The GI50 in the test with Malme-3M, in the test on LOX IMVI, with HOP-18, in the test with COLO 205, in the test on EKVX and in the test with NCI-H522 was > 100 µM (inactive) throughout.
In the case of `N=C(N)NS(=O)(=O)c1ccc(Nc2c3ccccc3nc3c(C(=O)N4CCN(CCO)CC4)ccc(Cl)c23)cc1`, the GI50 with A498 was > 100 µM (inactive); with ACHN, > 100 µM (inactive); with SNB-75, > 100 µM (inactive); in the test on HCT-15, over 100 µM; with OVCAR-3, > 100 µM (inactive); in the test with KM-20L2, > 100 µM (inactive). The GI50 in the test on SNB-19, in the test with HOP-92, in the test on UACC-257, in the test with SF-268, in the test on NCI-H460 and in the test on HCC 2998 was > 100 µM (inactive) throughout. The GI50 in the test on XF498, with Malme-3M and in the test with COLO 205 was > 100 µM (inactive) throughout.
As for `Cc1cnc(SCCN2CCN(C)CC2)nc1-c1cc2ccccc2s1`, the GI50 in the test on A498 was 15.3 µM (inactive); with SNB-75, 12.2 µM (inactive); in the test with HCT-15 it was 10.5 µM; in the test on OVCAR-3, 5.98 µM (inactive); in the test with HOP-92, 5.53 µM (inactive); in the test on DMS-273, 4.93 µM (inactive). Also, the GI50 was 10.3 µM (inactive) with UACC-257; 3.51 µM (inactive) with NCI-H460; 13.3 µM (inactive) in the test with HCC 2998; 17 µM (inactive) in the test with Malme-3M; 5.09 µM (inactive) in the test with LOX IMVI; < 0.01 µM (active) with HOP-18. Also, the GI50 was 14.3 µM (inactive) with COLO 205 and 14.7 µM (inactive) in the test with NCI-H522.
With `CCN(CC)c1ccc2cc(C(=O)Nc3ccc4[nH]c(C(=O)N5C[C@@H](CCl)c6c5cc(OC(=O)Nc5ccccc5)c5[nH]cc(C)c65)cc4c3)oc2c1` [CARZELESIN], the GI50 in the test on A498 was 0.00024 µM (active); in the test with SNB-75, 284 µM (inactive); with HCT-15, 0.000676 µM; with OVCAR-3, 245 µM (inactive); in the test on KM-20L2, 944 µM (inactive); with SNB-19, 294 µM (inactive). For the same compound, the GI50 in the test with HOP-92 was > 1000 µM (inactive); in the test on DMS-273, 9.33e-05 µM (active); with UACC-257, 384 µM (inactive); with SF-268 it was 0.00021 µM (active); in the test on NCI-H460, 9.08e-05 µM (active); with HCC 2998 it was 434 µM (inactive). In addition, the GI50 was 0.000256 µM (active) in the test on Malme-3M; 0.000128 µM (active) with LOX IMVI; < 0.1 µM (active) with HOP-18; 0.000266 µM (active) in the test with EKVX; 0.000708 µM (active) in the test on NCI-H522.
